From ChEMBL document CHEMBL1201862, “PubChem BioAssay data set” (2004)
Activity calls are given as the source filed them.

Key:
[1] = Luminescence Cell-Based Dose Retest to Confirm Inhibitors of Cancer Stem Cells. [Related pubchem assays (depositor defined):AID2717, AID2721]; format: functional; details: Homo sapiens
[2] = HEp-2 cell cytotoxicity, dose response, cytotoxicity control for RSV inhibitor project, HTS (AID 2410); format: functional; details: human respiratory syncytial virus
Protein skinhead-1 = molecular target: T1, Protein skinhead-1 (Caenorhabditis elegans, UniProt P34707); format: functional
T1 sequence (P34707 whole entry): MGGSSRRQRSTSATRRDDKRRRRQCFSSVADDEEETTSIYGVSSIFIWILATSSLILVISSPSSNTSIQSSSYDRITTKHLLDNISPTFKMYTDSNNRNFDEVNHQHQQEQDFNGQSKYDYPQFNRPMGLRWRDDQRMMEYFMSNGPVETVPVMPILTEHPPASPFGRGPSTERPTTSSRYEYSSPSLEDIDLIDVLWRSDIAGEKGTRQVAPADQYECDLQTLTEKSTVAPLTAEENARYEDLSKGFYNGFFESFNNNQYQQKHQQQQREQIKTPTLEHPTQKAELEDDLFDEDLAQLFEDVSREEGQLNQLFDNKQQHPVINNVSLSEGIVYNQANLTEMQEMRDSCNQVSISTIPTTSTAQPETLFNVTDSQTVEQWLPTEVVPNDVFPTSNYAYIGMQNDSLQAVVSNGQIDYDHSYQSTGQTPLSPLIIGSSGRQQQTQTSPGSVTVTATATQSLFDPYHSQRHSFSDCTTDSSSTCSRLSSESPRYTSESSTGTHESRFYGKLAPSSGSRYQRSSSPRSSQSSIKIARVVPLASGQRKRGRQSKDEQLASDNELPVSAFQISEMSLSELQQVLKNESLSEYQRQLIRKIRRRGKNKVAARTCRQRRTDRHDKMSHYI

H9c2 = experiment: cells; format: functional, cell-based; details: Rattus norvegicus, H9c2, Myocardium;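 further: confirmatory concentration-response retest of ultra-high-throughput screening hits for modulation of myocardial damage; cell death induced by hydrogen peroxide oxidative stress; compound pretreatment for 60 min then peroxide exposure for 2 h; potency is for protecting the cells against peroxide damage rather than for killing them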
[3] = molecular target: T2, High affinity choline transporter 1 (Homo sapiens, UniProt Q9GZV3); experiment: CHT inhibitors, dose response, cell-based, 5-point CRC, membrane potential dye (AID 504840); format: functional
T2 sequence (Q9GZV3 whole entry): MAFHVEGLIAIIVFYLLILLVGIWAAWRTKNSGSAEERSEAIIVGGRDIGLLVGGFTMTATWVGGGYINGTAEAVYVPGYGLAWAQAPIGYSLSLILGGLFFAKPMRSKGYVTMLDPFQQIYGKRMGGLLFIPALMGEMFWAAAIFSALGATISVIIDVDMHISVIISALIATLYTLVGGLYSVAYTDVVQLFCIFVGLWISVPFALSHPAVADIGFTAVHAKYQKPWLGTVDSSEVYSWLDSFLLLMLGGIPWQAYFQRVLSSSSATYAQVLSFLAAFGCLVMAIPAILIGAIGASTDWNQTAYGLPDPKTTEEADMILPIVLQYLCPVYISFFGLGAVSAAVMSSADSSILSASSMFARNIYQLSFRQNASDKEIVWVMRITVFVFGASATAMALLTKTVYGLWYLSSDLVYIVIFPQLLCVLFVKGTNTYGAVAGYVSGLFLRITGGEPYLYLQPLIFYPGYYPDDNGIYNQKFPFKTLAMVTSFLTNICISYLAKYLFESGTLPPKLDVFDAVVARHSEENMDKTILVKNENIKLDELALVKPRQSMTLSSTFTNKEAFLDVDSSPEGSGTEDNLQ

Cytochrome P450 2D6 = Cytochrome P450 2D6 (Homo sapiens, UniProt P10635);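 further: CYP2D6 member of a cytochrome P450 panel assay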
Sequence of Cytochrome P450 2D6 (P10635 whole entry): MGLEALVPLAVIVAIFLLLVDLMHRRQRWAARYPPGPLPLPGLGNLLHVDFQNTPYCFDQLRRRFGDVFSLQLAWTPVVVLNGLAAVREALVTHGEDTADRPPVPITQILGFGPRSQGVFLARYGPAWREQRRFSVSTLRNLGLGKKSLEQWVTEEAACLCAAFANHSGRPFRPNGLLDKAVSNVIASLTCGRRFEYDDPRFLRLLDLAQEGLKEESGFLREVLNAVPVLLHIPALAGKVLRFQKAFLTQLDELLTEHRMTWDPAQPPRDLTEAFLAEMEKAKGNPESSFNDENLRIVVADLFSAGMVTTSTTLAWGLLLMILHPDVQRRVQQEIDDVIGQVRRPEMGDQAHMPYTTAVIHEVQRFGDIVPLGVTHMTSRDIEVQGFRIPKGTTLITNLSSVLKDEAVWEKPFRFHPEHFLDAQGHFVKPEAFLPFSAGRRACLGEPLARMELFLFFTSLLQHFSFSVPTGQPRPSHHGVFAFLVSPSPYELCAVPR

Cytochrome P450 3A4 = Cytochrome P450 3A4 (Homo sapiens, UniProt P08684);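 further: CYP3A4 tested as one member of a cytochrome P450 panel screen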
Sequence of Cytochrome P450 3A4 (P08684 whole entry): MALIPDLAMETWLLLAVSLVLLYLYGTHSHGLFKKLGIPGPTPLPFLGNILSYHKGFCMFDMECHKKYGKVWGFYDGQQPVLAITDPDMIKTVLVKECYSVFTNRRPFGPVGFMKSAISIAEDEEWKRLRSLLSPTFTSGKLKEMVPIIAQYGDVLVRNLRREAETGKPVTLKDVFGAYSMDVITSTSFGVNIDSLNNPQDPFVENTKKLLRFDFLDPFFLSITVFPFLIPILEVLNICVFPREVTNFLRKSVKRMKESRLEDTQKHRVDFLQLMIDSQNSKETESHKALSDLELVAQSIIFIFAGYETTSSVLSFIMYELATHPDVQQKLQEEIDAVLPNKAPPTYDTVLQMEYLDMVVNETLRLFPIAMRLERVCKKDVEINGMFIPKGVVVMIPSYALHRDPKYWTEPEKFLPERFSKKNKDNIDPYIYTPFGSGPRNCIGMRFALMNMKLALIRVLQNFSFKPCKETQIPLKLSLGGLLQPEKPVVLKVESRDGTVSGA

[4] = Luminescence Cell-Based Dose Confirmation HTS to Identify Inhibitors of Platelet Dense Granule Release. [Related pubchem assays: 1663 (Primary HTS), 1678 (Summary of Project)]; format: functional
[5] = molecular target: Luciferin 4-monooxygenase (Photinus pyralis, UniProt P08659); experiment: firefly luciferase enzyme inhibitors, dose response, biochemical, luminescence (AID 1891)
Sequence of Luciferin 4-monooxygenase (P08659 whole entry): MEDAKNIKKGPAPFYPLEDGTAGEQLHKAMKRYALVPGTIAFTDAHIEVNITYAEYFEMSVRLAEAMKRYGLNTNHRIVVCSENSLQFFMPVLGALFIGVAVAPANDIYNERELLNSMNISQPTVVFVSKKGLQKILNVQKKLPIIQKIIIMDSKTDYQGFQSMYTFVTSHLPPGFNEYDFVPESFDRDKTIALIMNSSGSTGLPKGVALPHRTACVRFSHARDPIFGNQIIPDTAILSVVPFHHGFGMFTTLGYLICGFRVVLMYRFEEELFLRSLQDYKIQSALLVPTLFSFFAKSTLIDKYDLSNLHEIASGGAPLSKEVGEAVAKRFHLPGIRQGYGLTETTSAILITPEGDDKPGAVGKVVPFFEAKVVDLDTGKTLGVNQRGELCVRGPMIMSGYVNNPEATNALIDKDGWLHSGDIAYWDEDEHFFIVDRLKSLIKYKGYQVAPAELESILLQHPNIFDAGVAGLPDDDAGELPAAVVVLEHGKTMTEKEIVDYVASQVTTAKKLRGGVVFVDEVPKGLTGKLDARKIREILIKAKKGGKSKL

INS1 = experiment: beta cell apoptosis inhibitors, cytokine rescue, dose response, luminescence, retest (AID 449756); format: functional, cell-based; details: Rattus norvegicus;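 further: cell death triggered by IL-1 beta plus TNF-alpha plus IFN-gamma mixture; protective hits raise ATP signal compared with cytokine alone wells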
Protein RecA = molecular target: T3, Protein RecA (Mycobacterium tuberculosis, UniProt P9WHJ3); experiment: Fluorescence Cell-Free Homogeneous Dose Retest to Identify Inhibitors of RecA-Intein Splicing Activity. [Related pubchem assays (depositor defined):AID2097, AID2223, AID489010, AID492950]; format: functional
T3 sequence (P9WHJ3 whole entry): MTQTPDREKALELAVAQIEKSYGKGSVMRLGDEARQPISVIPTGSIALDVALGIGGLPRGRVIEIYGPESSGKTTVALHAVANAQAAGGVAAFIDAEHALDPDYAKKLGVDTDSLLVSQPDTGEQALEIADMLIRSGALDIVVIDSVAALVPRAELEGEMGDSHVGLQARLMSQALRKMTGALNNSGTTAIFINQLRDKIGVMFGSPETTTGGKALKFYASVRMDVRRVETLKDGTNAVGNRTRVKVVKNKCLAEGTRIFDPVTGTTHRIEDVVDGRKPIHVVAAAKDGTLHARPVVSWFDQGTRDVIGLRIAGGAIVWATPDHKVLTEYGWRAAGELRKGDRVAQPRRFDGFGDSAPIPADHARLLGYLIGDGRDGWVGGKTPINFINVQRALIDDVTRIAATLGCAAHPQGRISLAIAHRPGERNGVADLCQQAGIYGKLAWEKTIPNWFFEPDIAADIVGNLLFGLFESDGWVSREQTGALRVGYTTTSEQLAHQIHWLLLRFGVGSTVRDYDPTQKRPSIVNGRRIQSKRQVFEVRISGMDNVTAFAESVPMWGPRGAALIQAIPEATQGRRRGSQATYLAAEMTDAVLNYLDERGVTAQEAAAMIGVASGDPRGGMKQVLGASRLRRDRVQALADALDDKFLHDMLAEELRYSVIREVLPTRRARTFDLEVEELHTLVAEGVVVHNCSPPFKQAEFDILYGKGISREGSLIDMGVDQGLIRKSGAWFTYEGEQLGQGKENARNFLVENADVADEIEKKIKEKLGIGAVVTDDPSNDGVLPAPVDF

[6] = molecular target: T4, Replicative DNA helicase DnaB (Mycobacterium tuberculosis, UniProt P9WMR3); experiment: DnaB intein splicing inhibitors, dose response, biochemical, cell-free fluorescence (AID 449749); format: functional
T4 sequence (P9WMR3 whole entry): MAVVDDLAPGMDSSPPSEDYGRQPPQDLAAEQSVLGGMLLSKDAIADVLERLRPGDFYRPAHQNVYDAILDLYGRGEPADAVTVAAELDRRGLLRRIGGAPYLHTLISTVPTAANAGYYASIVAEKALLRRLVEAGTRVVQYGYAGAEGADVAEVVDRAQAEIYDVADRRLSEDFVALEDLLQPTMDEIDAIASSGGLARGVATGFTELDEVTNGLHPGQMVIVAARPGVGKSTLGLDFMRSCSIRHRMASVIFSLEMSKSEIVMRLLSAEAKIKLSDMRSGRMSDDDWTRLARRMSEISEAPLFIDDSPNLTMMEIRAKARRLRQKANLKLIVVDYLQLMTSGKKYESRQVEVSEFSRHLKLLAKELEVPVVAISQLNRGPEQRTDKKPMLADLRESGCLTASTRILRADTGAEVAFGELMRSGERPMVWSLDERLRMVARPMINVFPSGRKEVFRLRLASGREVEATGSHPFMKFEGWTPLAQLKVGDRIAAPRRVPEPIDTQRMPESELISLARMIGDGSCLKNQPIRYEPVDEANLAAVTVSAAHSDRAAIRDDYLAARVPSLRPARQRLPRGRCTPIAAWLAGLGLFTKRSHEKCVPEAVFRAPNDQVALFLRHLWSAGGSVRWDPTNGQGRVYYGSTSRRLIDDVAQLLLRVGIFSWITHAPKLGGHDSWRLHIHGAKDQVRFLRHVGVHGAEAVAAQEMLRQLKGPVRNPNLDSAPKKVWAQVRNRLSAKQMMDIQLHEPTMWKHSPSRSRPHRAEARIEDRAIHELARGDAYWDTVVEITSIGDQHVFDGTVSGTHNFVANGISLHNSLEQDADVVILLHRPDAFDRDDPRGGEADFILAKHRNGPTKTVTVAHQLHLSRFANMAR

[7] = NIH-3T3 fibroblast cytotoxicity, dose response, cytotoxicity control, cell-based, fluorescence, Alamar Blue, secondary assay (AID 2327); format: functional;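 further: NIH-3T3 mouse fibroblasts cultured with fluconazole at 8 µg/mL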
[8] = C. albicans growth with fluconazole, confirmation, fluorescence, retest (AID 2467); format: functional, cell-based
[9] = P. falciparum Dd2 growth inhibitors, dose response, SYBR Green, cherry-picked samples (AID 1159567); format: functional, cell-based

SMILES: O=C(Nc1ccc(NC(=S)NC(=O)c2ccccc2Cl)cc1)c1cccc(Cl)c1
- AC50 [1]: 3.26 µM (active)
- CC50 [2]: > 50 µM (active)

SMILES: O=C1C2C(C(=O)N1Cc1cccnc1)C1C=CC2C12CC2 (stereo unspecified)
- IC50 (Protein skinhead-1): > 100 µM (inactive)

SMILES: COc1ccc(Cl)cc1-c1nc(-c2ccc(NC(=O)c3cccs3)cc2)no1
- IC50 (H9c2): > 79 µM (inactive)
- CC50 [2]: 23.2 µM (active)

SMILES: CC1CCN(CC(=O)Nc2cccc(C(=O)Nc3cccc(C(F)(F)F)c3)c2)CC1
- IC50 [3]: 12.3 µM (active)
- IC50 (Protein skinhead-1): 43.2 µM (active)

SMILES: FC(F)(F)c1nnc2n1N=C(c1cccs1)CS2
- CC50 [2]: 22.6 µM (active)

SMILES: Cc1ccc(C2=NN(S(=O)(=O)c3ccccc3)C(c3ccco3)C2)cc1 (stereo unspecified)
- CC50 [2]: 8.13 µM (active)

SMILES: Cc1ccccc1OCCCn1c(=O)sc2ccccc21
- AC50 (Cytochrome P450 2D6): 11.2 µM (inconclusive)
- CC50 [2]: 32.2 µM (active)
- AC50 (Cytochrome P450 3A4): 17.8 µM (inconclusive)

SMILES: CC1CCN(CC(O)COc2ccc(OCC(O)CN3CCC(C)CC3)cc2)CC1 (stereo unspecified)
- IC50 [3]: 12.6 µM (active)

SMILES: Cc1ccc(C2CC(=O)Oc3cc(O)ccc32)cc1 (stereo unspecified)
- IC50 (Protein skinhead-1): > 100 µM (inactive)

SMILES: COc1cccc(NC(=O)c2cnn(-c3ccccc3)c2C)c1
- EC50 [4]: 20.2 µM (active)
- EC50 [5]: 8.62 µM (active)

SMILES: CCCc1cc2c(=O)c(-c3cscn3)c(C(=O)OCC)oc2cc1O
- IC50 [3]: 13.8 µM (active)

SMILES: Cc1cccc(N2CC(C)Cn3c2nc2c3c(=O)n(CC(=O)OCc3ccccc3)c(=O)n2C)c1 (stereo unspecified)
- EC50 [4]: > 112 µM (not active)
- EC50 [5]: 27.8 µM (active)

SMILES: Cc1ccc(C)c(OCC(=O)Nc2ccc(S(=O)(=O)Nc3ccccn3)cc2)c1C
- IC50 [3]: 7.2 µM (active)

SMILES: CCCN(Cc1nnc(-c2ccccc2Cl)o1)C(=O)c1cc2ccccc2o1
- CC50 [2]: 19.5 µM (active)

SMILES: CCCCC1CCC(C(=O)N(CC(C)C)c2c(N)n(Cc3ccccc3)c(=O)[nH]c2=O)CC1 (stereo unspecified)
- AC50 [1]: 2.96 µM (active)
- AC50 (INS1): 5.82 µM (active)

SMILES: CCCCOc1ccc2c(c1)C(=O)c1cc(O)ccc1-2
- CC50 [2]: 11.7 µM (active)

SMILES: COc1cccc(C(=O)Nc2ccc(C3CC3(Cl)Cl)cc2)c1 (stereo unspecified)
- AC50 [1]: 3.15 µM (active)

SMILES: CC1CCCCC1N1CN=C(Nc2nc3ccccc3s2)NC1 (stereo unspecified)
- IC50 (Protein skinhead-1): > 100 µM (inactive)

SMILES: O=C1/C(=C/c2cccs2)CCC1C1CCCC1 (stereo unspecified)
- IC50 (Protein skinhead-1): > 100 µM (inactive)

SMILES: O=C(Nc1ccc2[nH]c(-c3ccccc3)nc2c1)c1cccs1
- IC50 (Protein skinhead-1): > 100 µM (inactive)

SMILES: CC1(C)Cc2ccccc2C(CSc2ccccc2C(=O)O)=N1
- AC50 [1]: 4.98 µM (active)

SMILES: COCC(=O)Nc1sc2c(c1C(=O)OC)CCCC2
- IC50 (Protein skinhead-1): > 100 µM (inactive)

SMILES: CNc1nc(-c2ccccc2)nnc1C(F)(F)F
- CC50 [2]: 27.7 µM (active)

SMILES: COc1cc2cnc(-c3ccccc3)c(-c3cccc(C(F)(F)F)c3)c2cc1OC
- AC50 [1]: 4.47 µM (active)

SMILES: Cc1cnc(NC(=O)CC(C)c2ccccc2)s1 (stereo unspecified)
- IC50 (Protein skinhead-1): > 100 µM (inactive)

SMILES: CCOC(=O)c1cccc(Nc2ncnc3ccccc23)c1
- IC50 [3]: 14.5 µM (active)

SMILES: COC(=O)c1oc2ccc(Cl)cc2c1-n1cccc1
- IC50 (Protein skinhead-1): > 100 µM (inactive)

SMILES: Clc1ccc(C=Cc2ccccn2)cc1
- IC50 (Protein skinhead-1): 5.71 µM (active)

SMILES: O=c1c2ccccc2nc(SCc2ccncc2)n1CC1CCCO1 (stereo unspecified)
- IC50 [3]: 12.9 µM (active)

SMILES: C/C(=N\NC(=O)C(C)n1nc(C)c([N+](=O)[O-])c1C)c1ccccc1O (stereo unspecified)
- AC50 (INS1): 1.93 µM (active)

SMILES: O=c1cc(-c2ccccc2)[nH]n1-c1ccc([N+](=O)[O-])cc1
- EC50 (Protein RecA): 11 µM (active)
- AC50 [1]: 4.13 µM (active)
- AC50 [6]: 3.09 µM (active)

SMILES: COc1ccc(C/C(O)=C(\C#N)c2nc3ccccc3s2)cc1
- IC50 [3]: 0.724 µM (active)
- EC50 [7]: 39.5 µM (active)
- EC50 [8]: 405 nM (active)

SMILES: CCn1/c(=N/C(=O)c2ccc(S(=O)(=O)N3CCOCC3)cc2)sc2cccc(OC)c21
- AC50 (INS1): 5.66 µM (active)

SMILES: COc1cccc(-c2ccc3c(c2)[C@@H]2[C@@H](CCN2S(=O)(=O)c2cn(C)cn2)[C@@H](CO)N3)c1
- AC50 [9]: 9.63 µM (active)

SMILES: C[C@@H]1CN([C@H](C)CO)S(=O)(=O)c2ccc(C3=CCCCC3)cc2O[C@H]1CN(C)C(=O)Cc1ccncc1
- AC50 [9]: 3.22 µM (active)

SMILES: C[C@@H]1CN([C@@H](C)CO)C(=O)Cc2cc(NC(=O)Nc3ccccc3)ccc2O[C@H]1CN(C)CC1CC1
- AC50 [9]: 8.09 µM (active)

SMILES: O=C(c1ccccn1)N1CC2(C1)[C@@H](c1ccccc1)[C@H](CO)N2Cc1ccc(Cl)cc1
- AC50 [9]: 4.6 µM (active)

SMILES: COc1ccc(NC(=O)N2CCC3(CC2)CN(C(=O)C2CCC2)[C@@H](CO)c2c3c3ccc(OC)cc3n2C)cc1
- AC50 [9]: 6.04 µM (active)

SMILES: CCC(=O)N1CC2(C1)[C@H](c1ccccc1)[C@H](CO)N2Cc1ccccc1OC
- AC50 [9]: 8.35 µM (active)
